{"source": "patent US9872861B2", "about": "“Methods of treatment using selective Bcl-2 inhibitors” (AbbVie Inc., priority 2010, dated 2018)", "key": {"[1]": {"molecular_target": "Bcl-2 (Homo sapiens, UniProt P10415)", "sequence (P10415 whole entry)": "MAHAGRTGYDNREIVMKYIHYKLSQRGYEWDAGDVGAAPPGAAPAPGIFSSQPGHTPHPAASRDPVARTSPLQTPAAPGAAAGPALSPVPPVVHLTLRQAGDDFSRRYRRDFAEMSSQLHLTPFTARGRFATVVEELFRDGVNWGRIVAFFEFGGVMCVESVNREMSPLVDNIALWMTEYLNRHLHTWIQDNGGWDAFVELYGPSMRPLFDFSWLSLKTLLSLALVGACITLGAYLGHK", "assay": "TR FRET competitive binding affinity, Bcl-2", "conditions": "read-out: Target Affinity TR FRET, Bcl-2", "procedure": "(§1) A comparison of the binding affinity for each of the compounds was performed to determine target affinity, as measured by Time-Resolved Fluorescence Resonance Energy Transfer (TR FRET)."}, "[2]": {"molecular_target": "Bcl-XL (Homo sapiens, UniProt Q07817)", "sequence (Q07817 whole entry)": "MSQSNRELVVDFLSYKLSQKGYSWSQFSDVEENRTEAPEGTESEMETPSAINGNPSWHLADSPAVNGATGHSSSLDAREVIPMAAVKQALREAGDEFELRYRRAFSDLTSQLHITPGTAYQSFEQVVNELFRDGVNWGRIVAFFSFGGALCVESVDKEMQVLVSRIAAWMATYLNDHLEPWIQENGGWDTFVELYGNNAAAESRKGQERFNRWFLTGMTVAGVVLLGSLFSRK", "assay": "TR FRET competitive binding affinity, Bcl-XL", "conditions": "read-out: Target Affinity TR FRET, Bcl-XL", "procedure": "as §1"}, "[3]": {"molecular_target": "T1, Bcl-w (Homo sapiens, UniProt Q92843)", "T1 sequence (Q92843 1-193)": "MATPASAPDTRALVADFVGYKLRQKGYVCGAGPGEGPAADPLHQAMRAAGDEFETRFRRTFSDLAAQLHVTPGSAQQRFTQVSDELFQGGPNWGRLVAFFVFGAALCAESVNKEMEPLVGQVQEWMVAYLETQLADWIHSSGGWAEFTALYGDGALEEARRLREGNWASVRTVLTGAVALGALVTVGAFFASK", "assay": "TR FRET competitive binding affinity, Bcl-w", "conditions": "read-out: Target Affinity TR FRET, Bcl-w", "procedure": "as §1"}, "[4]": {"molecular_target": "Mcl-1 (Homo sapiens, UniProt Q07820)", "sequence (Q07820 whole entry)": "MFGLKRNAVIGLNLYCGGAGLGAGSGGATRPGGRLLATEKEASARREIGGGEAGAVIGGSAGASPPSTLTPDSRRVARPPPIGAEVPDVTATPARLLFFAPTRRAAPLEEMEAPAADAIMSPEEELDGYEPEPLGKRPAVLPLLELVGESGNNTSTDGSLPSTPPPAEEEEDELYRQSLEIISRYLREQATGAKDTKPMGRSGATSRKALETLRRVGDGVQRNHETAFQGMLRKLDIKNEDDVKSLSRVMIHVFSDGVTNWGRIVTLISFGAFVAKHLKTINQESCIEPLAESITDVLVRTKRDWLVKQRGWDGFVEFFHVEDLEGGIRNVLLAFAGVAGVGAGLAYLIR", "assay": "TR FRET competitive binding affinity, Mcl-1", "conditions": "read-out: Target Affinity TR FRET, Mcl-1", "procedure": "as §1"}, "[5]": {"system": "FL5.12-Bcl-2 cells", "assay": "Cellular efficacy in FL5.12 cells dependent on Bcl-2", "assay_type": "cell-based, murine", "conditions": "Mus musculus, 3% FBS"}, "[6]": {"system": "FL5.12-Bcl-XL cells", "assay": "Cellular efficacy in FL5.12 cells dependent on Bcl-XL", "assay_type": "cell-based, murine", "conditions": "Mus musculus, 3% FBS"}, "[7]": {"system": "RS4;11 cells", "assay": "Cellular efficacy in Bcl-2 dependent tumor cell line RS4;11", "assay_type": "cell-based, human", "conditions": "Homo sapiens, RS4-11; 10% HS"}, "[8]": {"system": "H146 cells", "assay": "Cellular efficacy in Bcl-XL dependent tumor cell line H146", "assay_type": "cell-based", "conditions": "Homo sapiens, NCI-H146; 10% HS"}, "[9]": {"system": "peripheral blood immune cells", "assay": "Peripheral blood lymphocytes in C57BL/6 mice, Cell Dyn hematology analyzer", "assay_type": "in vivo", "conditions": "for inhibition in vivo at 100 mg/kg: Mus musculus, Lymphocyte", "procedure": "The effect of the Bcl-2 selective/Bcl-XL sparing compounds on peripheral blood immune cells was also evaluated in C57BL/6 mice. Mice were treated four days with individual compounds (100 mg/kg, orally every day) and cell numbers were measured with a Cell Dyn hematology analyzer."}, "[10]": {"system": "spontaneous (NZB×NZW)F1 murine model of lupus", "assay": "Spontaneous (NZB×NZW)F1 murine model of lupus: proteinuria, survival, lymphopenia", "assay_type": "in vivo, (NZB×NZW)F1 mice", "description": "(See Liu, K. and C. Mohan, What do mouse models teach us about human SLE? Clin Immunol, 2006. 119(2): p. 123-30) This model has been well-characterized with respect to the patho-physiological changes analogous to those of human SLE. […] Renal histopathological changes include severe glomerulonephritis, mesangial and peripheral proliferative changes, capillary membrane thickening, tubular atrophy, and infiltration of lymphocytes and monocytes/macrophages as in the majority of human SLE patients. These changes result in disruption of kidney function as evidenced by severe proteinuria (PU) greater than 300 mg/dL as measured by albumin sticks, followed by mortality as measured by survival. […] (See Gelfand, M. C. and A. D. Steinberg, Therapeutic studies in NZB-W mice. II. Relative efficacy of azathioprine, cyclophosphamide and methylprednisolone. Arthritis Rheum, 1972. 15(3): p. 247-52; and Ramos, M. A., et al., Modulation of autoantibody production by mycophenolate mofetil: effects on the development of SLE in (NZB×NZW)F1 mice. Nephrol Dial Transplant, 2003. 18(5): p. 878-83)\n(NZB×NZW)F1 females were purchased from The Jackson Laboratory (Bar Harbor, Me., USA) and maintained in a conventional animal housing facility throughout the experiment. […] Proteinuria (PU) and survival were monitored weekly, followed by biweekly measurement of lymphocyte and platelet counts, and anti-ds DNA production. PK parameters were also measured throughout the study. Impact on IgG deposition and renal pathology were assessed at the conclusion of the study. Severe PU was defined by two consecutive weekly measurements of PU 300 mg/dl using Albustix test strips (VWR). When mice became moribund, they were sacrificed according to Institutional Animal Care and Use Committee protocols. PU and survival data were presented as Kaplan-Meyer survival curves using Graphpad Prism software and group differences were considered significant at the level of p<0.05. Histologic scores were analyzed using ANOVA analysis. Anti-ds DNA were analyzed using one-way ANOVA analysis and Tukey post-test."}}, "note": "Like-named read-outs stand apart in the source and are kept apart here. Marks after values point to notes of the source that are not given here.", "data": [{"smiles": "CC1(C)CCC(CN2CCN(c3ccc(C(=O)NS(=O)(=O)c4ccc(N[C@H]5CC[C@H](N6CCOCC6)CC5)c([N+](=O)[O-])c4)c(Oc4cnc(N)c(Cl)c4)c3)CC2)=C(c2ccc(Cl)cc2)C1", "note": "[Compound 17, Trans-2-[(6-amino-5-chloropyridin-3-yl)oxy]-4-(4-{[2-(4-chlorophenyl)-4,4-dimethylcyclohex-1-en-1-yl]methyl}piperazin-1-yl)-N-({4-[(4-morpholin-4-ylcyclohexyl)amino]-3-nitrophenyl}sulfonyl)benzamide]", "values": [{"measurement": "Ki", "setting": "[1]", "value": "< 0.01", "unit": "nM"}, {"measurement": "Ki", "setting": "[2]", "value": 12, "unit": "nM"}, {"measurement": "Ki", "setting": "[3]", "value": 357, "unit": "nM"}, {"measurement": "Ki", "setting": "[4]", "value": "> 440", "unit": "nM"}, {"measurement": "EC50", "setting": "[5]", "value": 4, "unit": "nM"}, {"measurement": "EC50", "setting": "[6]", "value": 65, "unit": "nM"}, {"measurement": "EC50", "setting": "[7]", "value": 17, "unit": "nM"}, {"measurement": "EC50", "setting": "[8]", "value": 3240, "unit": "nM"}, {"measurement": "Day 1 Lymphocytes", "setting": "[9]; 1 oral dose of 100 mg/kg", "value": "1.84 ×10^6"}, {"measurement": "Day 4 lymphocytes", "setting": "[9]; 4 oral doses of 100 mg/kg", "value": "1.30 ×10^6"}, {"measurement": "inhibition in vivo at 100 mg/kg", "setting": "[9]; 24 h, 1 oral dose of 100 mg/kg, read-out: Day 1 % Reduction vs. Vehicle", "value": 77, "unit": "%"}, {"measurement": "inhibition in vivo at 100 mg/kg", "setting": "[9]; 96 h, 4 oral doses of 100 mg/kg, read-out: Day 4 % Reduction vs. Vehicle", "value": 83, "unit": "%"}, {"measurement": "% Mice with PU < 300 mg/dL", "setting": "[10]; Week 39, 1 mg/kg daily oral", "value": 58, "unit": "%"}, {"measurement": "% Survival", "setting": "[10]; Week 39, 1 mg/kg daily oral", "value": 67, "unit": "%"}, {"measurement": "% Mice with PU < 300 mg/dL", "setting": "[10]; Week 39, 3 mg/kg daily oral", "value": 67, "unit": "%"}, {"measurement": "% Survival", "setting": "[10]; Week 39, 3 mg/kg daily oral", "value": 92, "unit": "%"}, {"measurement": "% Mice with PU < 300 mg/dL", "setting": "[10]; Week 39, 10 mg/kg daily oral", "value": 71, "unit": "%"}, {"measurement": "% Survival", "setting": "[10]; Week 39, 10 mg/kg daily oral", "value": 93, "unit": "%"}, {"measurement": "% Mice with PU < 300 mg/dL", "setting": "[10]; Week 39, 30 mg/kg daily oral", "value": 86, "unit": "%"}, {"measurement": "% Survival", "setting": "[10]; Week 39, 30 mg/kg daily oral", "value": 100, "unit": "%"}, {"measurement": "% Mice with PU < 300 mg/dL", "setting": "[10]; Week 39, 100 mg/kg daily oral", "value": "100* %"}, {"measurement": "% Survival", "setting": "[10]; Week 39, 100 mg/kg daily oral", "value": 100, "unit": "%"}]}]}
